Tested on: Melanoderm cultures
Test: Solvable melanin assay on Melanoderm cultures (3-D skin model)
Format: cell-based
Conditions: for OD = 490 nm (melanin content): Melanoderm cultures fed every other day for 2 weeks, Untreated control 1.259, ETOH control 1.035
Protocol: This experiment was carried out using a Melanoderm cultures. […] was measured using a chromameter to assay the degree of melanization of a 3-D skin model. Melanoderm cultures were obtained from MatTek Corporation, Ashland, Mass. The Melanoderm was maintained according to the manufacturer's instructions. The basal media used for the maintenance of the Melanoderm cultures was DMEM supplemented with unspecified quantities of Epidermal growth factor, Insulin, Hydrocortisone, and proprietary epidermal differentiation compounds, in addition to anti-fungal and antibiotics. For the long term maintenance of the Melanoderms, the basal media was supplemented with both bFGF and a-MSH, compounds which are stimulators of melanocyte growth and melanogenesis. The cultures were fed every other day for a total of 2 weeks—fresh active preparations, prepared in DMSO or culture media, were also applied to the Melanoderms when feeding was performed. Each treatment condition was done in duplicate and digital photographs were taken of the Melanoderm cultures to assess overall pigmentation. As well, microscopic images of the Melanoderms were done to assess the cell viability of the keratinocytes and melanocytes. For further evidence that the treatments were/not cytotoxic, an LDH assay (Promega, Madison, Wis.) was performed on the supernatants from 24 hour post-treatment cultures. After treatment, tissues are usually frozen until completion of the experiment. Thaw tissues, a few at a time and place in D-PBS to remove excess phenol red from the culture medium and residual test article. Remove a single tissue from the insert. Blot dry and place in 1.7 ml. microfuge tube. Repeat for all samples. Add 250 ul Solvable™ (Tissue and Gel Solubilizer 0.5 M—Packard BioScience Co. Catalogue No. 6NE9100 (NEF910)). Close the tube and make sure that the tissue is completely submerged. Incubate at 60° C. overnight along with standards. In the morning, vortex the samples. Sometimes thick tissues will require additional time to complete the solution process. To Prepare Standard: Dissolve Melanin (Sigma cat. M 8631) in Solvable at 1 mg/ml. The solution may be warmed gently for 15 minutes at 37° C. Store solution in dark. To Prepare Standard Curve: Prepare dilutions from the standard containing 0 ug to 250 ug of melanin in a total of 250 ul Solvable. Incubate dilutions along with samples. To Read Assay: Cool samples and standards. Centrifuge at 13,000 rpm for 5 minutes to pellet. Fill microwell plate (C-96) with 200 ul each of samples and standards. There is some foaming of samples when pipetted. Blow gently across the samples to break bubbles prior to reading the plate. Read plate at […].

O=C(O)C(=O)Cc1ccc(O)cc1 [4-hydroxyphenylpyruvate]
OD = 490 nm (melanin content) (5 uM): 1.236 | OD = 490 nm (melanin content) (50 uM): 0.687 | OD = 490 nm (melanin content) (500 uM): 0.565 | OD = 490 nm (melanin content) (1000 uM): 0.453 | effect on melanin synthesis (conclusion from Table 5, Melanoderm cultures): reduce melanin synthesis

From patent publication US7250158B1, “Skin lightening agents, compositions and methods” (Conopco, Inc., priority 2006, dated 2007)
